“Also recorded” adds a separate entry of the source.
Legend:
PGC-1α protein = PGC-1α protein expression in brain and hippocampus of old mouse models (western blot); format: in vivo; details: ICR mice, oral 0.1 mg/kg/day, 42 weeks
Procedure: In order to investigate the relative protein expression in the brain compared with before SL (3′-SL & 6′-SL) aministration, 4-week-old ICR mice were purchased from Central Lab Animal (Korea). Water was freely accessible, and a commercially available pellet feed (Dooyeul Biotech, Korea) was given for two weeks. […]
Sialyllactose or DW was orally administered daily. […] The dietary intake and body weight change were measured every 5 days. […]
In FIG. 2b, BB1 6′ represents 6′-SL. The “PGC-1α protein expression level” and “GAPDH protein expression level” in each site were quantified, and the relative ratio of the values, (PGC-1α protein expression level)/(GAPDH protein expression level) was numerically expressed for the control group, 3′-SL administration group, and 6′-SL administration group. […]

PGC-1α and related genes = assay: Gene expression in muscle cell test (C2C12); format: cell-based; details: C2C12 immature muscle cells, 24 hours
Procedure: C2C12 immature muscle cells were prepared from the purchase from American Tissue Culture Collection (ATCC, USA). The cells were cultured in Dulbecco's modified Eagle's medium (DMEM, Gibco, USA) supplemented with 10% fetal bovine serum (FBS, USA) in a 5% CO2 incubator at 37° C. until the cells grew to confluency of 70%, while the medium was exchanged every two days. The differentiation into muscle cells was induced by culturing in a medium containing 2% horse serum (HS, Gibco, USA). The muscle cells cultured in the medium containing 2% HS for 4 days were treated with SL with various concentrations. The negative control group was treated with physiological saline with 1/1000 of the volume of the medium. The cells treated with each sample were incubated at 37° C. for 24 hours, and then washed twice with cool saline solution, and RNA was extracted using TRIzol agent (Invitrogen). cDNA was synthesized by using 1 μg/μl of RNA, which has been extracted as above and quantified, and a reverse transcription system (Promega, USA).
The expression patterns of PGC-1α and related genes were measured by using pre-designed primers and probes (Applied Biosystems; PGC-1α, Mm00447181_m1, GAPDH, and Mm99999915_q1) for the synthesized cDNA and analysis targets (Fndc5, PGC-1α, Erra, UCP1, SOD2, and GPX1). […]

[1] = test system: skin test model (HRM2) mice; assay: Skin tests (UV irradiation, skin sensitivity, skin irritation, subcutaneous absorption) in skin test model mice; format: in vivo, mouse; details: oral 0.1 mg/kg/day, 10 weeks
Text: In order to investigate the gene expression chages by body parts by the treatment with the SL (3′-SL & 6′-SL) compositions in skin test models, 6-week-old male skin test model (HRM2) mice (hairless appearance containing melanin) were randomly grouped into three different dietary treatment groups (8 animals per group, a total of 24 animals) below, and the diets (AIN-76A, Dyets, USA) were maintained for 10 weeks. The UV irradiation (black spot, wrinkle test), skin sensitivity test, skin irritation test, subcutaneous absorption test, or the like were conducted using a portable color-difference meter (CR-10, Minolta, Japan): • Control group: Group fed with a normal diet (8 animals) • 3′-SL administration group: Models treated with 3′-sialyllactose (3′-SL, Sigma) (oral administration of 0.1 mg per kg of mouse weight per day) in addition to the normal diet group (8 animals) • 6′-SL administration group: Models treated with 6′-sialyllactose (6′-SL, Sigma) (oral administration of 0.1 mg per kg of mouse weight per day) in addition to the normal diet group (8 animals)

CC(=O)N[C@H]1[C@H]([C@H](O)[C@H](O)CO)O[C@@](OC[C@H]2O[C@@H](O[C@H]3[C@H](O)[C@@H](O)[C@H](O)O[C@@H]3CO)[C@H](O)[C@@H](O)[C@H]2O)(C(=O)O)C[C@@H]1O [6′-SL, α-NeuNAc-(2→6)-β-D-Gal-(1→4)-D-Glc]
PGC-1α protein expression level (PGC-1α/GAPDH) vs negative control (PGC-1α protein): much higher | expression levels of analysis targets (Fndc5, PGC-1α, Erra, UCP1, BDNF, SOD2, GPX1) vs negative control (PGC-1α and related genes): significant increases | skin state in UV irradiation (black spot, wrinkle test), skin sensitivity, skin irritation, subcutaneous absorption tests vs control [1]: much improved skin

CC(=O)N[C@H]1[C@H]([C@H](O)[C@H](O)CO)O[C@@](O[C@H]2[C@@H](O)[C@@H](CO)O[C@@H](O[C@H]3[C@H](O)[C@@H](O)C(O)O[C@@H]3CO)[C@@H]2O)(C(=O)O)C[C@@H]1O (stereo partly drawn) [3′-SL, α-NeuNAc-(2→3)-β-D-Gal-(1→4)-D-Glc]
expression levels of analysis targets (Fndc5, PGC-1α, Erra, UCP1, BDNF, SOD2, GPX1) vs negative control (PGC-1α and related genes): significant increases; also recorded: lower than that of 6′-SL | skin state in UV irradiation (black spot, wrinkle test), skin sensitivity, skin irritation, subcutaneous absorption tests vs control [1]: much improved skin

— US20190030053A1, “COMPOSITION FOR INCREASING EXPRESSION OF PGC-1alpha” (BENEBIOSIS CO., LTD., priority 2016, published 2019)
